From publication PMC10366102, “Dose escalation and expansion cohorts in patients with advanced breast cancer in a Phase I study of the CDK7-inhibitor samuraciclib” (Nature Communications, 2023)

Legend:
[1] = tested on: CYP2C9; set-up: method as in ref IB; details: human microsomes; ref IB; cited from earlier work
[2] = tested on: HR+/HER2− advanced breast cancer patients post-CDK4/6 inhibitor; details: female, human, in vivo
Description: In each cohort the dose of fulvestrant was 500 mg every 28 ± 2 days, with an additional 500 mg dose given 14 ± 2 days after the first dose. Cohort 1 tested samuraciclib 240 mg OD continuous dosing. If the DLT stopping criteria were not met, Cohort 2 commenced enrollment at the Module 1A MTD. Patients underwent regular safety monitoring and 8-week scans reported using RECIST V1.1[32].
As Module 1A was a ‘first time in human’ safety study, initial efficacy was evaluated as a secondary endpoint using the DCR, defined as the percentage of patients with a complete response (CR), PR or stabilization of disease at first on treatment RECIST assessment. To allow for the evaluation of longer-term benefit, Module 1B-1 and Module 2A used the CBR as a secondary endpoint, defined as the percentage of patients with CR or PR or stabilization of disease for at least 24 weeks between enrollment and disease progression or death due to any cause. In addition, the ORR was assessed, defined as the percentage of patients who had at least 1 objective response (CR or PR) prior to any evidence of progression. […] Statistical analyses of PFS using the Kaplan-Meier method were performed on the ITT population - defined as all enrolled patients. AEs were summarized from the Safety Population - defined as all patients who received at least 1 dose of samuraciclib - using the MedDRA system organ class (SOC), preferred term (PT), and graded according to CTCAE V5.0 (Supplementary Information).
DLTs recorded in the first cycle. Patients were considered evaluable if they completed the first cycle or
discontinued therapy in the first cycle due to a DLT. Patients in a cohort were replaced if they could not
complete the first cycle unless this was due to a DLT.
Part A was planned to have two dose cohorts with up to 6 evaluable patients to be enrolled per
cohort. In each cohort, the dose of fulvestrant was fixed at the standard dose of 500mg given at intervals
of 28±2 days with an additional 500mg dose given 14±2 days after the first dose. Fulvestrant was
administered as two consecutive slow intramuscular (IM) injections (1-2 minutes) of 250mg in 5 mL,
one in each buttock (gluteal area). Pre-and peri-menopausal women also had to have commenced
treatment with a luteinizing hormone-releasing hormone (LHRH) agonist at least 4 weeks prior to first
dose of study medication. Patients continued to receive treatment in 28-day cycles until they no longer
gained clinical benefit or they discontinued treatment.
Cohort 1 tested samuraciclib at 240mg OD as monotherapy, which is approximately 33% lower than the
current maximum tolerated dose (MTD) of 360mg. If no DLT was recorded in Cycle 1 in the first 3
evaluable patients, Cohort 2 commenced enrolment at 360mg of samuraciclib OD.
DLT in Cohort 1, a further 3 evaluable patients were assessed.
started enrolment. If ≥ 2/3 or ≥ 2/6 patients in Cohort 1 experienced a DLT, dose escalation was
stopped. In Cohort 2, if 0/3 or 1/3 evaluable patients experienced a DLT, the cohort was expanded to 6
patients. If ≥ 2/3 or ≥ 2/6 patients experienced a DLT, the Cohort 1 dosing regimen (samuraciclib at
240mg and fulvestrant at 500mg) was determined as the preliminary Phase 2 dosing regimen. If < 2/6
considered the recommended Phase 2 regimen.
The SRC was convened to decide whether and when to open the second samuraciclib dosing cohort and
which dosing regimen to advance to randomized Phase 2 testing. If the SRC considered safety and/or
patients who had at least one response of complete response (CR) or partial response (PR) prior to any
evidence of progression. The percentage change in tumor size was derived at each tumor imaging
assessment by the best percentage change from baseline in the sum of the diameters of target lesions. In
Module 1A initial efficacy was evaluated using the disease control rate (DCR) defined as percentage of
participants with a complete response (CR) or partial response (PR) or stabilization of disease at first on
treatment RECIST assessment.

[3] = tested on: CYP2C8; set-up: method as in ref IB; details: human microsomes; ref IB; cited from earlier work
[4] = set-up: method as in ref IB; details: ref IB; cited from earlier work

CC(C)c1cnn2c(NCc3ccccc3)cc(NC[C@H]3CCNC[C@@H]3O)nc12 [samuraciclib, Samuraciclib]
IC50 [1]: […] | Discontinued due to related gastrointestinal AEs [2]: 23% | Discontinued due to unrelated AEs [2]: 5 patients | Drug-related: ALT increased [2]: 3 (9.7) patients (%) | Drug-related: AST increased [2]: 4 (12.9) patients (%) | Drug-related: Abdominal pain [2]: 7 (22.6) patients (%) | Drug-related: Abdominal pain (second line so named) [2]: 4 (12.9) patients (%) | Drug-related: Anaemia [2]: 2 (6.5) patients (%) | Drug-related: Constipation [2]: 2 (6.5) patients (%) | Drug-related: Decreased appetite [2]: 9 (29.0) patients (%) | Drug-related: Dehydration [2]: […] | Drug-related: Diarrhoea [2]: 28 (90.3) patients (%) | Drug-related: Dry mouth [2]: 2 (6.5) patients (%) | Drug-related: Dry skin [2]: 2 (6.5) patients (%) | Drug-related: Dysgeusia [2]: 4 (12.9) patients (%) | Drug-related: Dysphagia [2]: 3 (9.7) patients (%) | Drug-related: Fatigue [2]: 11 (35.5) patients (%) | Drug-related: Flatulence [2]: 2 (6.5) patients (%) | Drug-related: Headache [2]: 4 (12.9) patients (%) | Drug-related: Mouth ulceration [2]: […] | Drug-related: Mucosal inflammation [2]: 2 (6.5) patients (%) | Drug-related: Muscular weakness [2]: 2 (6.5) patients (%) | Drug-related: Nausea [2]: 25 (80.6) patients (%) | Drug-related: Rash [2]: 3 (9.7) patients (%) | Drug-related: Stomatitis [2]: 2 (6.5) patients (%) | Drug-related: Taste disorder [2]: 2 (6.5) patients (%) | Drug-related: Thrombocytopenia [2]: 3 (9.7) patients (%) | Drug-related: Vomiting [2]: 23 (74.2) patients (%) | Drug-related: Weight decreased [2]: 2 (6.5) patients (%) | Participants with any drug-related TEAE [2]: 30 (96.8) patients (%) | IC50 [3]: > 50 µM | Solubility [4]: pH-dependent solubility
